Test systems include HCT-15 colon; BT-549 breast; SF-295 CNS; HL-60(TB) leukemia; MALME-3M melanoma; NCI-H23 lung; T-47D breast; HT29 colon; LOX IMVI melanoma; KM12 colon.
Holding throughout (assay): NCI-60 cell line screen, 48 h

8 compounds from PubChem BioAssay (NCI) can be followed below.

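Step 1: Grow cells in 96-well plates. Step 2: Expose to compound for 48 hours at 5 concentrations. Step 3: Interpolate endpoints linearly; if unreached, use highest concentration. At the GI50, growth is halved. TGI is the concentration that stops growth completely.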

Turning to `Cc1ccccc1-n1c(/C=C\c2ccccn2)nc2ccccc2c1=O`, the GI50 in the assay on HCT-15 colon was 7.39 µM; in the assay with BT-549 breast it was 7.44 µM; in the assay with SF-295 CNS it was 6.76 µM; with HL-60(TB) leukemia it was 6.12 µM; with MALME-3M melanoma, 18.8 µM; with NCI-H23 lung, 6.06 µM. In addition, the GI50 is 5.99 µM with T-47D breast, 19.7 µM in the assay on HT29 colon, 15 µM with LOX IMVI melanoma and 11.1 µM in the assay on KM12 colon. For the same compound, the TGI with HCT-15 colon is 37.2 µM; with BT-549 breast, 22.3 µM; in the assay on SF-295 CNS, 47.3 µM; in the assay on HL-60(TB) leukemia it was greater than 100 µM; in the assay with MALME-3M melanoma, 42.1 µM; in the assay with NCI-H23 lung, 57.4 µM. The TGI in the assay on T-47D breast is 64.8 µM; with HT29 colon, greater than 100 µM; with LOX IMVI melanoma, 37 µM; in the assay on KM12 colon it was 27.9 µM.
Take `CC1CCCN(CC(O)CN2CCCc3ccccc32)C1` (stereo not drawn): the TGI in the assay on HCT-15 colon was greater than 100 µM; in the assay with BT-549 breast, greater than 100 µM; in the assay with SF-295 CNS, greater than 100 µM; in the assay with HL-60(TB) leukemia, 46.6 µM; with MALME-3M melanoma, greater than 100 µM; with NCI-H23 lung it was greater than 100 µM. The TGI in the assay with T-47D breast, in the assay with HT29 colon, with LOX IMVI melanoma and in the assay with KM12 colon was greater than 100 µM throughout.
For the compound `O=C(O)c1ccc(S(=O)(=O)N=Nc2c(O)[nH]c3ccccc23)cc1`, the TGI in the assay on HCT-15 colon, in the assay on BT-549 breast, in the assay on SF-295 CNS, in the assay with HL-60(TB) leukemia, in the assay with MALME-3M melanoma and in the assay with NCI-H23 lung was greater than 100 µM in each case. Also, the TGI in the assay on T-47D breast, in the assay on HT29 colon, in the assay on LOX IMVI melanoma and in the assay with KM12 colon was greater than 100 µM each time.
In the case of `Cc1[nH]nc2c1N=C(c1ccccc1F)c1cc(C#N)ccc1N2`, the GI50 with BT-549 breast is 2.65 µM; in the assay on SF-295 CNS, 0.207 µM; in the assay with HL-60(TB) leukemia, 0.0969 µM; in the assay on MALME-3M melanoma, 14.7 µM; with NCI-H23 lung it was 3.74 µM; with T-47D breast, 1.36 µM. For the same compound, the GI50 in the assay with HT29 colon is 0.118 µM; with LOX IMVI melanoma, 0.285 µM; in the assay on KM12 colon, 0.111 µM. Also, the TGI in the assay on BT-549 breast was 12.1 µM; in the assay on SF-295 CNS, 15.9 µM; with HL-60(TB) leukemia, 8.71 µM; with MALME-3M melanoma, greater than 25 µM; in the assay with NCI-H23 lung it was 14.2 µM; in the assay with T-47D breast it was greater than 15.2 µM. Besides, the values for the TGI with HT29 colon, with LOX IMVI melanoma and in the assay on KM12 colon were 7.41 µM, 16.3 µM and 6.48 µM, respectively.
For `O=C(Nc1cccc2cccnc12)c1ccc(N2C(=O)[C@@H]3[C@H](C2=O)[C@@H]2C=C[C@H]3C2)cc1`, the GI50 was 30.7 µM with HCT-15 colon; 16.3 µM in the assay with BT-549 breast; 24.9 µM in the assay with SF-295 CNS; 21 µM with HL-60(TB) leukemia; 21.5 µM in the assay with MALME-3M melanoma; 23.5 µM with NCI-H23 lung. Besides, the GI50 in the assay with T-47D breast was 20.2 µM; in the assay with HT29 colon, 18 µM; with LOX IMVI melanoma, 31.8 µM; with KM12 colon, 30.9 µM. The TGI with HCT-15 colon was greater than 100 µM; in the assay with BT-549 breast it was greater than 83.3 µM; in the assay with SF-295 CNS, greater than 86.9 µM; in the assay on HL-60(TB) leukemia, 59 µM; with MALME-3M melanoma, greater than 100 µM; with NCI-H23 lung, greater than 100 µM. Besides, the TGI in the assay on T-47D breast is greater than 79.3 µM; in the assay with HT29 colon it was 62.4 µM; in the assay with LOX IMVI melanoma, greater than 100 µM; in the assay with KM12 colon, greater than 100 µM.
Take `CCn1c(-c2nonc2N)nc2c(C#CC(C)(C)O)nc(O[C@@H](CN)c3ccccc3)cc21`: the GI50 was 3.1 µM with HCT-15 colon; 0.356 µM with BT-549 breast; 0.0333 µM in the assay with SF-295 CNS; 0.0891 µM in the assay with HL-60(TB) leukemia; 0.447 µM in the assay with MALME-3M melanoma; 0.344 µM in the assay with NCI-H23 lung. Besides, the GI50 with T-47D breast was 0.016 µM; in the assay on HT29 colon, 0.119 µM; in the assay with LOX IMVI melanoma, 0.14 µM; with KM12 colon, 0.0578 µM. The TGI in the assay on HCT-15 colon was 24.1 µM; in the assay on BT-549 breast it was 1.9 µM; with SF-295 CNS, 1 µM; in the assay on HL-60(TB) leukemia, 0.371 µM; in the assay with MALME-3M melanoma, 1.47 µM; with NCI-H23 lung, 2.97 µM. The TGI in the assay with T-47D breast turned out to be 2.34 µM; in the assay with HT29 colon, 0.735 µM; with LOX IMVI melanoma, 1.32 µM; in the assay on KM12 colon it was 1.51 µM.
Regarding `COc1ccc(NC(=O)c2sc3nc(C)c(C(O)c4ccc(OC)cc4)cc3c2N)cc1` (stereo not drawn), the GI50 in the assay with HCT-15 colon is 0.414 µM; in the assay on BT-549 breast it was 1.81 µM; in the assay on SF-295 CNS it was 0.299 µM; in the assay on HL-60(TB) leukemia, 1.23 µM; with MALME-3M melanoma, 2.65 µM; in the assay with NCI-H23 lung, 2.06 µM. The GI50 was 10.5 µM with T-47D breast, 1.45 µM in the assay with HT29 colon, 1.4 µM in the assay with LOX IMVI melanoma and 0.76 µM in the assay on KM12 colon. Further, the TGI in the assay on HCT-15 colon is greater than 50 µM; in the assay with BT-549 breast it was greater than 50 µM; in the assay on SF-295 CNS, 9.79 µM; in the assay on HL-60(TB) leukemia, greater than 50 µM; in the assay with MALME-3M melanoma, greater than 50 µM; in the assay with NCI-H23 lung, greater than 50 µM. Also, the TGI with T-47D breast is greater than 50 µM; in the assay on HT29 colon, 19.4 µM; in the assay on LOX IMVI melanoma, greater than 50 µM; in the assay on KM12 colon, greater than 50 µM.
For `BrC(Br)(Br)c1cnc2ccccc2n1`, the GI50 with HCT-15 colon is 2.03 µM; with BT-549 breast it was 2.4 µM; with SF-295 CNS, 3.75 µM; in the assay with HL-60(TB) leukemia, 1.97 µM; in the assay with MALME-3M melanoma, 1.55 µM; in the assay on NCI-H23 lung it was 3.6 µM. Also, the GI50 with T-47D breast is 1.33 µM; with HT29 colon, 1.06 µM; with LOX IMVI melanoma, 0.425 µM; with KM12 colon it was 2.37 µM. Further, the TGI in the assay on HCT-15 colon turned out to be 6.2 µM; in the assay with BT-549 breast it was 6.84 µM; in the assay with SF-295 CNS, 15.4 µM; in the assay on HL-60(TB) leukemia, 4.16 µM; in the assay on MALME-3M melanoma, 5.28 µM; with NCI-H23 lung, 17.1 µM. The TGI in the assay on T-47D breast was found to be 3.31 µM; in the assay on HT29 colon it was 2.67 µM; in the assay on LOX IMVI melanoma it was 2.19 µM; in the assay with KM12 colon, 7.7 µM.
